# How the values were obtained:
# HCC1806 cells = test: Cell proliferation inhibition assay (MTT, 7 days); format: cell-based; conditions: Homo sapiens, HCC1806, 168 h, HCC1086 [sic], 7 days incubation
# Description: (§1) MCF7, T47D, OVCAR3 and HCC1806 cells were inoculated in 96-well plates at 3000, 3000, 2500, and 2000 cells/well, respectively, and cultured overnight at 37° C., 5% C02 incubator.
# (§2) 1. […] Then 2.5 μl of the stock solution was dissolved in 497.5 μl of DMSO-free medium, and then a 3-fold serial gradient dilution was performed with 0.1% DMSO medium for a total of 9 concentrations, and the concentrations of the compounds after dilution were as follows: • 10000 nM, 3333.33 nM, 1111.11 nM, 370.34 nM, 123.45 nM, 41.15 nM, 13.72 nM, 4.57 nM, and 1.52 nM. • b) After fully mixing, 20 μL of compound solutions were added into cell culture plates containing 80 μL of cells respectively, with 4 replicate wells for each concentration. • c) The cells were transferred to an incubator and incubated for 7 days, and exchanged with fresh culture medium containing the same concentration of compounds when incubated to day 4. 2. MTT assay • a) The cell culture plate was taken out and 10 μL of 5 mg/ml MTT was added to the hood. • b) The cell culture plate was put back into the incubator and continued to incubate for 3 hours. • c) The cell culture plate was taken out to remove the culture medium, and 100 μL of isopropanol (0.4 mMHCl, 0.4% NP40) was added to the plate, and the plate was shaken on a shaker at room temperature for 30 minutes and read at 570 nm. 3. Data analysis
# (§3) The survival rate (% Cell Survival) was calculated using the following equation:
# (§4) % Cell Survival=100%×(OD_Sample−OD_LCave)/(OD_HC−OD_LCave) • OD_HC: 0.1‰ cell readings of DMSO control • OD_Sample: cell readings of compound addition • OD_LC: readings of blank medium • Analyed by Prizm: Dose-response-Inhibition Log(inhibitor) vs response (three parameters for the best fit)
# (§5) IC50 (nM) values were calculated by concentration-response curve fitting.
# MCF7 cells = test: Cell proliferation inhibition assay (MTT, 7 days); format: cell-based; conditions: Homo sapiens, 168 h, 7 days incubation
# Description: as §1, §2, §3, §4, §5
# OVCAR3 cells = test: Cell proliferation inhibition assay (MTT, 7 days); format: cell-based; conditions: Homo sapiens, OVCAR-3, 168 h, 7 days incubation
# Description: as §1, §2, §3, §4, §5
# T47D cells = test: Cell proliferation inhibition assay (MTT, 7 days); format: cell-based; conditions: Homo sapiens, 168 h, 7 days incubation
# Description: as §1, §2, §3, §4, §5
# CDK2/CycE1 = CDK2/CycE1 (Homo sapiens, UniProt P24941); test: Enzyme activity test; format: biochemical;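 note: values come from the source column headed CDK2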
# Description: (§6) • 1. The test compounds and pabocinib were configured into a […] solution of DMSO; • 2. 20 nL of stock solution was transferred to a 384-well plate using Echo550. DMSO was used as a blank control.
# (§7) • 1. according to the following table to prepare 1.3X enzyme solution containing enzyme, substrate and cofactor; • 2. 15 μL of 1.3X enzyme solution was added to each well and the mixture was incubated for 30 min at room temperature; • 3. 5 μL of ATP solution was added to initiate the reaction. The final volume of each well was 20 μL; • 4. After incubation for 150 min at room temperature, 75 μL of termination buffer solution was added to terminate the experiment; • 5. The samples were analyzed using EZ reader.
# (§8) The % inhibition was calculated using the following equation
# (§9) The one treated with DMSO is the positive control (PC)
# (§10) The one without enzyme is the negative control (NC)
# (§11) % Inhibition=100-100*((CRPC−CRsample)/(CRPC−CRNC))
# CDK4/CycD3 = CDK4/CycD3 (Homo sapiens, UniProt P11802); test: Enzyme activity test; format: biochemical;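 note: values come from the source column headed CDK4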
# Description: as §6, §7, §8, §9, §10, §11
# CDK6/CycD1 = CDK6/CycD1 (Homo sapiens, UniProt Q00534); test: Enzyme activity test; format: biochemical;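 note: values come from the source column headed CDK6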
# Description: as §6, §7, §8, §9, §10, §11
# CDK6/CycD1, sequence (Q00534 whole entry, species assumed): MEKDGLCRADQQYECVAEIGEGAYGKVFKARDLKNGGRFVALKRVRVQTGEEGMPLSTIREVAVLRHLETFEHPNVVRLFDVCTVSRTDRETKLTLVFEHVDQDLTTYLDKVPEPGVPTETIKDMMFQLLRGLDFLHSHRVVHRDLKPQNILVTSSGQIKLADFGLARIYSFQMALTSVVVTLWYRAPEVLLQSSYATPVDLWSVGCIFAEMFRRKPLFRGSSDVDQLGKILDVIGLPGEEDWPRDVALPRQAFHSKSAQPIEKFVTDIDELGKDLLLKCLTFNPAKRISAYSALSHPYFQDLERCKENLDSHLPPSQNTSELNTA
# CDK6/CycD1, sequence (P24385 whole entry partner, species assumed): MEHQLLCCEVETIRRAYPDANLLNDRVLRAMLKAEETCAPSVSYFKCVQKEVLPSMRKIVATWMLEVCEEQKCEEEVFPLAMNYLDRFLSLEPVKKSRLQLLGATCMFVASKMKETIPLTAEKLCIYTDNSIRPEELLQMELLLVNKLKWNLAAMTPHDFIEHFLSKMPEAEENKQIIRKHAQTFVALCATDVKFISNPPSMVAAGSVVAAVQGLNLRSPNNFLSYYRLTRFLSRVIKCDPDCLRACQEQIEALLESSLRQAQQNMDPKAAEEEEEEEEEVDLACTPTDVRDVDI
# CDK4/CycD3, sequence (P11802 whole entry, species assumed): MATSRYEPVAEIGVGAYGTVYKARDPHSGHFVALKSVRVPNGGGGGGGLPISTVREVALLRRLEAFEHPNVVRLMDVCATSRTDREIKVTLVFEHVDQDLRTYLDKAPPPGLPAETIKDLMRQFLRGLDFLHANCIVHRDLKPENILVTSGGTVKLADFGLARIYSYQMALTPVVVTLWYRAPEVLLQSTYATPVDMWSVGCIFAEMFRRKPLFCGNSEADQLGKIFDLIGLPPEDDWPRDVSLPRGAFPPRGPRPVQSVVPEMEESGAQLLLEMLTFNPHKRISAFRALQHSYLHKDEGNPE
# CDK4/CycD3, sequence (P30281 whole entry partner, species assumed): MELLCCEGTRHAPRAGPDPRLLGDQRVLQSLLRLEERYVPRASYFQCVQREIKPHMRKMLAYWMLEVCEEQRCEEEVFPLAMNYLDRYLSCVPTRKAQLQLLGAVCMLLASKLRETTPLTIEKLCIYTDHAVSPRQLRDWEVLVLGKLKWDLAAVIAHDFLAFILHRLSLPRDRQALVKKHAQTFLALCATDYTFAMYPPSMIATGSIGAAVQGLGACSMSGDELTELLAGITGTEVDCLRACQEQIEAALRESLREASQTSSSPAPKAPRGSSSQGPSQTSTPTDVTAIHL
SMILES,IC50 (HCC1806 cells) [nM],IC50 (MCF7 cells) [nM],IC50 (OVCAR3 cells) [nM],IC50 (T47D cells) [nM],IC50 (CDK2/CycE1) [nM],IC50 (CDK4/CycD3) [nM],IC50 (CDK6/CycD1) [nM]
C[C@@]1(O)CCC[C@H]1n1c(=O)c(OC(F)F)cc2cnc(NC3CCN(S(=O)(=O)C4CCC(F)CC4)CC3)nc21 (some centres unmarked) [Example 55],50 to 5200,≤ 50,50 to 5200,≤ 50,,,
[2H]C([2H])([2H])Oc1ccc(S(=O)(=O)N2CCC(Nc3ncc4cc(OC(F)F)c(=O)n([C@@H]5CCC[C@@]5(C)O)c4n3)CC2)cc1 [Example 31],≤ 50,≤ 50,≤ 50,≤ 50,< 10,< 10,
C[C@@]1(O)CCC[C@H]1n1c(=O)c(OC(F)F)cc2cnc(NC3CCN(S(=O)(=O)N4CCOCC4)CC3)nc21 [Example 66],50 to 5200,,≤ 50,50 to 5200,< 10,10 to 100,< 10
CCCS(=O)(=O)N1CCC(Nc2ncc3cc(OC(F)F)c(=O)n([C@@H]4CCC[C@@]4(C)O)c3n2)CC1 [Example 30],50 to 5200,50 to 5200,50 to 5200,50 to 5200,,,
C[C@@]1(O)CCC[C@H]1n1c(=O)c(OC(F)F)cc2cnc(NC3CCN(S(=O)(=O)c4cccc(Cl)c4)CC3)nc21 [Example 59],50 to 5200,50 to 5200,50 to 5200,50 to 5200,,,
CN1CCC(c2ccc(Nc3ncc4cc(OC(F)F)c(=O)n([C@@H]5CCC[C@@]5(C)O)c4n3)cc2)CC1 [Example 61],,,,,10 to 100,< 10,< 10
C[C@@]1(O)CCC[C@H]1n1c(=O)c(C2COC2)cc2cnc(NC3CCN(S(C)(=O)=O)CC3)nc21 [Example 1],,,,,< 10,10 to 100,10 to 100
C[C@@]1(O)CCC[C@H]1n1c(=O)c(OC(F)F)cc2cnc(NC3CCN(S(=O)(=O)CC#N)CC3)nc21 [Example 38],50 to 5200,≤ 50,,,,,
CN1CCN(c2ccc(Nc3ncc4cc(OC(F)F)c(=O)n([C@@H]5CCC[C@@]5(C)O)c4n3)nc2)CC1 [Example 60],≤ 50,≤ 50,≤ 50,≤ 50,,,
C[C@@]1(O)CCC[C@H]1n1c(=O)c(OC(F)F)cc2cnc(NC3CCN(S(=O)(=O)c4ccc(Cl)cc4)CC3)nc21 [Example 58],200 to 51000,50 to 5200,50 to 5200,50 to 5200,,,
C[C@@]1(O)CCC[C@H]1n1c(=O)c(OC(F)F)cc2cnc(NC3CCN(S(=O)(=O)C4CCC(F)(F)CC4)CC3)nc21 [Example 54],200 to 51000,,≤ 50,50 to 5200,< 10,10 to 100,
C[C@@]1(O)CCC[C@H]1n1c(=O)c(OC(F)F)cc2cnc(NC3CCN(S(=O)(=O)C4CC(F)(F)C4)CC3)nc21 [Example 46],50 to 5200,≤ 50,≤ 50,≤ 50,< 10,< 10,
C[C@@]1(O)CCC[C@H]1n1c(=O)c(OC(F)F)cc2cnc(NC3CCN(S(=O)(=O)C4CCCCC4)CC3)nc21 [Example 49],200 to 51000,,50 to 5200,50 to 5200,,,
C[C@@]1(O)CCC[C@H]1n1c(=O)c(OC(F)F)cc2cnc(NC3CCN(S(=O)(=O)C4CCC(=O)CC4)CC3)nc21 [Example 53],200 to 51000,200 to 51000,≤ 50,50 to 5200,,,
C[C@@]1(O)CCC[C@H]1n1c(=O)c(OC(F)F)cc2cnc(NC3CCN(S(=O)(=O)c4cccc(C(F)(F)F)c4)CC3)nc21 [Example 20],200 to 51000,200 to 51000,50 to 5200,50 to 5200,,,
